# What was measured:
# Assay type in all cases: cell-based
# GluR1 AMPA receptor = biological target: T1, GluR1 AMPA receptor (Rattus norvegicus, UniProt P19490); test: Kainate-induced currents, Xenopus oocytes injected with GluR1 cRNA; settings: GluR1, steroid 100 μM; for Percentage change in kainate response: 100 μM kainate, −100 mV
# T1 construct: expressed in transfected cells; host or cells: Xenopus oocytes injected with GluR1 cRNA
# Excerpt: (§1) Plasmids were obtained from the following individuals: Dr. Suzanne Zukin (Albert Einstein College of Medicine, Bronx, N.Y.), NR1100; Dr. Shigetada Nakanishi (Kyoto University Faculty of Medicine, Kyoto, Japan), NR2A; Dr. Stephen Heinemann (Salk Institute, San Diego, Calif.), GluR1 (flop), GluR3 (flop), and GluR6. Plasmids were linearized with BamH1 (NR1100), XhoI (NR2A, GluR1, GluR3) or XbaI (GluR6) prior to in vitro transcription with T3 (GluR1, GluR3, GluR6) or T7 (NR1100, NR2A) RNA polymerase using the Message Machine kit (Ambion, Austin, Tex.). […] RNA solutions (50-70 nl) were injected into oocytes for delivery of NR1100 (5 ng), NR1100:NR2A (1:10 ng), GluR1 (5 ng). GluR3 (5 ng), or GluR6 (20 ng). Oocytes were incubated in ND96 at 18-20° C. for 3-7 days prior to electrophysiological recording.
# (§2) Steroid solutions were prepared as 70-100 mM frozen stocks in dimethyl sulfoxide (DMSO). The final DMSO concentration of all recording solutions was between 0.1% to 0.5% and was constant within an experiment.
# (§3) Perfusion control and data acquisition were carried out using an automated oocyte electrophysiology workstation that was developed for the rapid collection of concentration-response data and real-time waveform analysis (Yaghoubi et al., Soc. Neurosci. Abstr. 20: 1109 (1995)). This system is implemented on a Macintosh IIci computer (Apple Computer, Cupertino, Calif.) equipped with MacA-DIOS II data acquisition and control hardware (GW Instruments, Somerville, Mass.). Drug application is controlled by the computer through a series of valves, using custom-written software based on the SuperScope II development environment, improving the efficiency and reproducibility of data collection. Experiments were carried out using an Axoclamp-2A voltage clamp amplifier (Axon Instruments, Foster City, Calif.) in two-electrode voltage clamp mode. Intracellular microelectrodes (1-3 MΩ) were filled with 3 M KCl. […] Membrane potential was clamped at −60 to −70 mV and stepped to −100 mV at the start of data acquisition unless otherwise stated. […] Current and voltage recordings were digitized at 100 Hz for analysis. GluR6 injected oocytes were treated for 10 min with 10 μg/ml concanavalin A to prevent fast desensitization.
# (§4) Results are expressed as mean±S.E.M. Statistical comparisons were made using Student's t-test.
# GluR3 AMPA receptor = biological target: T2, GluR3 AMPA receptor (Rattus norvegicus, UniProt P19492); test: Kainate-induced currents, Xenopus oocytes injected with GluR3 cRNA; settings: GluR3, steroid 100 μM; for Percentage change in kainate response: 100 μM kainate, −100 mV
# T2 construct: expressed in transfected cells; host or cells: Xenopus oocytes injected with GluR3 cRNA
# T2 sequence (P19492 23-888): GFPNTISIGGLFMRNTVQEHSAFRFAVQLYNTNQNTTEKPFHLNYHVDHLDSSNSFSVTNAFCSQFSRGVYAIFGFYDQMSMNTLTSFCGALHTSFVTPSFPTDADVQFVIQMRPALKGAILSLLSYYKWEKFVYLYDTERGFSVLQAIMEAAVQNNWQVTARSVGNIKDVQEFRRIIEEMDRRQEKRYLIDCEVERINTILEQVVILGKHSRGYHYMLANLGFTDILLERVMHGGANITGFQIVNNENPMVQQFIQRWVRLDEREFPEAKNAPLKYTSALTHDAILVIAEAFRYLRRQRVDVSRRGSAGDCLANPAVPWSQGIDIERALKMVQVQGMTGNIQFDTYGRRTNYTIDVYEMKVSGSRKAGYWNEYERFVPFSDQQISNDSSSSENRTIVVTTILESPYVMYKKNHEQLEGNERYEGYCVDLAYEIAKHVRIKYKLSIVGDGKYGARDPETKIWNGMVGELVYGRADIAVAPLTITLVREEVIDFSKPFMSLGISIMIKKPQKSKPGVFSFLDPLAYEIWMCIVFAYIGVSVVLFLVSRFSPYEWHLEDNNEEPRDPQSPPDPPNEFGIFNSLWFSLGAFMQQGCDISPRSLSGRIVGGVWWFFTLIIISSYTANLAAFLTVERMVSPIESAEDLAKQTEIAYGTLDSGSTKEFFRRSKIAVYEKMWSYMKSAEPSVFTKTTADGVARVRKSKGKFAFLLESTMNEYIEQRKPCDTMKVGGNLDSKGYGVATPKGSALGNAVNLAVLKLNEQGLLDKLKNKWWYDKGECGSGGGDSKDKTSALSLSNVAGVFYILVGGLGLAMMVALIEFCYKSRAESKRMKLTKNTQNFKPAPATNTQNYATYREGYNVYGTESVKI
# Excerpt: as §1, §2, §3, §4
# GluR6 kainate receptor = biological target: T3, GluR6 kainate receptor (Rattus norvegicus, UniProt P42260); test: Kainate-induced currents, Xenopus oocytes injected with GluR6 cRNA; settings: GluR6, steroid 100 μM; for Percentage change in kainate response: 10 μM kainate, −100 mV
# T3 construct: expressed in transfected cells; host or cells: Xenopus oocytes injected with GluR6 cRNA (concanavalin A treated)
# T3 sequence (P42260 32-908): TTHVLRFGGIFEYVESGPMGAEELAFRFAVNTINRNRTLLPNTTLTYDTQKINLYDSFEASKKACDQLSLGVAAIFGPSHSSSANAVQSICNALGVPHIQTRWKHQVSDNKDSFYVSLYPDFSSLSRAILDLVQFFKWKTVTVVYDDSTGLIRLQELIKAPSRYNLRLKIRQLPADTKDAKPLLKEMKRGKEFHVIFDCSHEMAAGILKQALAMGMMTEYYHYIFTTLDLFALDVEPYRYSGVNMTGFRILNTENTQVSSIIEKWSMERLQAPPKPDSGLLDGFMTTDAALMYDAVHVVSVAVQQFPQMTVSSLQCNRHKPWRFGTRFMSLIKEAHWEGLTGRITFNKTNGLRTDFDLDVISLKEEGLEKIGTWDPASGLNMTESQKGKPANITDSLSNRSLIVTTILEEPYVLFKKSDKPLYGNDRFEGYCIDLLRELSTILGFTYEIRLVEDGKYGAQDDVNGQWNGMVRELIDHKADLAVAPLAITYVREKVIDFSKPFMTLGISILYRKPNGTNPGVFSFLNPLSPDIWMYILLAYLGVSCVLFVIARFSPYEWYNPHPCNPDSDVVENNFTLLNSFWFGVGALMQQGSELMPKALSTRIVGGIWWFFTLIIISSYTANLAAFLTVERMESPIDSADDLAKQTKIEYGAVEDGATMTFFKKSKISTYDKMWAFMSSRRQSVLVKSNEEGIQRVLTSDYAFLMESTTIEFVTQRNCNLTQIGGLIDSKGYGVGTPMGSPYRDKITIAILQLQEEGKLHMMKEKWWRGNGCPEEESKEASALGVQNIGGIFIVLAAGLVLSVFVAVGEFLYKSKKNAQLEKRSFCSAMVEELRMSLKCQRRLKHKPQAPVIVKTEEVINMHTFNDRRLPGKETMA
# Excerpt: as §1, §2, §3, §4
# [1] = biological target: T4, NR1100+NR2A NMDA receptor (Rattus norvegicus, UniProt P35439+Q00959); test: NMDA-induced currents, Xenopus oocytes, Example 1; settings: NR1100 + NR2A; steroid 100 μM; 100 μM NMDA; −100 mV
# T4 construct: expressed in transfected cells; host or cells: Xenopus oocytes co-injected with NR1100 and NR2A cRNA
# T4 sequence (Q00959 23-1464, other chains not shown): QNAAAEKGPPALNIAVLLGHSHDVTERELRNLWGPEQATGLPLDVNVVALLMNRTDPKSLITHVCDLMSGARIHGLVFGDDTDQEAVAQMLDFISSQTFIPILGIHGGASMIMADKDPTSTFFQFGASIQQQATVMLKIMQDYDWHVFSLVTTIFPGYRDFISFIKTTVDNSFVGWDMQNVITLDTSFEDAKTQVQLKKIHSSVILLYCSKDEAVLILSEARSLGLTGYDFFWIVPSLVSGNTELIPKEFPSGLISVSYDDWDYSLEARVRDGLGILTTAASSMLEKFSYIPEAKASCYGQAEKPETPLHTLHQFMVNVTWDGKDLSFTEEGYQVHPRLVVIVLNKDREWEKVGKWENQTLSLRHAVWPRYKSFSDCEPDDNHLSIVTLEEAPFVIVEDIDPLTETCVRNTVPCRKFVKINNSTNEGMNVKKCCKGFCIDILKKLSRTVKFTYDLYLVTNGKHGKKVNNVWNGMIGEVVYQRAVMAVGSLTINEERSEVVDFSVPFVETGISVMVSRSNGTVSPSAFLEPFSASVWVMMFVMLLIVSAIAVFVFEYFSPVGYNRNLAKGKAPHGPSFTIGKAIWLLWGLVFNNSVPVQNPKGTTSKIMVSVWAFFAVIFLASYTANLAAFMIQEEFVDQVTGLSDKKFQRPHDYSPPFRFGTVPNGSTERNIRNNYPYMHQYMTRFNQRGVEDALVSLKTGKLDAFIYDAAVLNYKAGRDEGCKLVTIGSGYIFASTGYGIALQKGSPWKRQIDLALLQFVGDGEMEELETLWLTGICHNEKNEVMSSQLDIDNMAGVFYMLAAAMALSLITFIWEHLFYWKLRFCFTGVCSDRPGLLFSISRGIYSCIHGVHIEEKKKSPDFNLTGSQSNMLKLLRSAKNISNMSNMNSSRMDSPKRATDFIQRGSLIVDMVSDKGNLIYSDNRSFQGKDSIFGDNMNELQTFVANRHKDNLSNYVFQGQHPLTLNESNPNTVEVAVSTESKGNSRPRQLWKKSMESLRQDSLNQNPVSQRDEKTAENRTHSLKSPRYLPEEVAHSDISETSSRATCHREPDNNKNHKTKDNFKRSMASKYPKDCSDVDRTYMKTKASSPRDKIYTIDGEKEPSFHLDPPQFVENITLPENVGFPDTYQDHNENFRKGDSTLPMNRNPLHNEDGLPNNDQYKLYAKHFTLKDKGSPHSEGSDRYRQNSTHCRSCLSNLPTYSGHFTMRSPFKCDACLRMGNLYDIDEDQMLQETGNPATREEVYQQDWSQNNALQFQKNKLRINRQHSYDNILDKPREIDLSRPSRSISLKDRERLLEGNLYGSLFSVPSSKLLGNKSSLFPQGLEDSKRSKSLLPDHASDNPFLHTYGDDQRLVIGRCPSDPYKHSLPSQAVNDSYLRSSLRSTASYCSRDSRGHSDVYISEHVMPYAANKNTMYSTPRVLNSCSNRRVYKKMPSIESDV
# Excerpt: as §1, §2, §3, §4
# [2] = tested on: primary cultures of rat hippocampal neurons; test: NMDA-induced neuronal death, trypan blue exclusion; settings: DNQX; 100 μM SR-95531; not shown
# Method: Principally neuronal cultures were prepared from hippocampal tissue of fetal Sprague-Dawley rats on day 18 of embryonic development, as previously described (Brewer et al., Brain Research 494: 65-74 (1989)). Briefly, hippocampal cells were dissociated by trituration in Ca^2+/Mg^2+-free Hank's basic salt solution (Gibco) supplemented with 4.2 mM bicarbonate, 1 mM sodium pyruvate, 20 mM HEPES, 3 mg/ml bovine serum albumin (BSA). Dissociated cells were then pelleted by centrifugation (500×g, 4 min). […] Cells were then plated onto poly-L-lysine-coated 24-well culture dishes (Nunclon) at a density of 15,000 cell/cm^2 and maintained in a humidified atmosphere containing 5% CO2/95% air at 37° C. After 48 h, nonneuronal cell division was inhibited by a 48 h exposure to 1 μM cytosine arabinoside. Cultures were subsequently maintained in serum-free DMEM plus defined components and were used for experiments 16 to 24 days after plating.
# Steroids were dissolved in DMSO (0.5% final concentration), and all treatment media contained 0.5% DMSO. […] Following exposure, cultures were washed 3 times with medium from sister cultures (conditioned medium). After the final wash, steroid or vehicle was reintroduced. Drugs were added to cultures in 25 μl of conditioned medium to yield a final volume of 0.25 ml per well. Except where otherwise noted, final steroid concentration was 100 μM.
# The ability of neurons to exclude trypan blue was used to quantitate cell viability (Dawson et al., Proc Natl Acad Sci USA 88: 6368-6371 (1991)). […] Cultures were then fixed with 4% paraformaldehyde in PBS for 30 min, at whichtime the fixative was replaced with PBS. The number of stained and unstained neurons were counted in 4 high-power fields per culture well, using an inverted phase contrast microscope under both bright field and phase contrast settings. Experiments were performed in triplicate, and all assessments were made with the experimenter blind to the treatment of each culture well. Percent cell death is expressed as follows: (number of trypan blue stained neurons)/(total number of neurons)×100%.
# All data are expressed as mean±standard error of the mean. Statistical significance was evaluated using 95% confidence limits unless otherwise noted.
# T1 sequence (P19490 19-907): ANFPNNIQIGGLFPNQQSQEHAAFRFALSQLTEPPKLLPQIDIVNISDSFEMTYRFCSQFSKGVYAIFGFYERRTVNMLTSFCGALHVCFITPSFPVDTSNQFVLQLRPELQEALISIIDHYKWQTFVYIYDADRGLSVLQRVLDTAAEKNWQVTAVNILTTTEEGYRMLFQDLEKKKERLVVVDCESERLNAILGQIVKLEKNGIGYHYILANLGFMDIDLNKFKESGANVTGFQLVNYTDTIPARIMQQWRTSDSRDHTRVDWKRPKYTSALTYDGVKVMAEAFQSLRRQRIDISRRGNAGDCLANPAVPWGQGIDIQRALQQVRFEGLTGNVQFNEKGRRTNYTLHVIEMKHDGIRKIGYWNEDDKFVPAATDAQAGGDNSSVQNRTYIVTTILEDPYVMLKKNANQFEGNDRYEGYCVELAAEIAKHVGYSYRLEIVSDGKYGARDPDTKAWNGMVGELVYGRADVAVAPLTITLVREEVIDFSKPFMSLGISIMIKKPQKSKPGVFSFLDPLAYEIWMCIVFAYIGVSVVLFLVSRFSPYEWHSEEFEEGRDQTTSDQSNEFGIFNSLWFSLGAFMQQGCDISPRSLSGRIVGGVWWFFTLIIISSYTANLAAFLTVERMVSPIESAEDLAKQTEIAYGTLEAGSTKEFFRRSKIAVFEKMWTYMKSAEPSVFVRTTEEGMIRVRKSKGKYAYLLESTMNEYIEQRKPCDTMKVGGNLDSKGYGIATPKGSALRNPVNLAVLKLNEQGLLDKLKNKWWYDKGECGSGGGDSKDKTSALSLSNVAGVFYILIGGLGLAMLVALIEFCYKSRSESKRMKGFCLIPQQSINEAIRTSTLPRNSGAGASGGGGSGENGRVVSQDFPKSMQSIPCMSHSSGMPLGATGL
SMILES,Percentage change in kainate response (GluR1 AMPA receptor),Percentage change in kainate response (GluR3 AMPA receptor),Percentage change in kainate response (GluR6 kainate receptor),inhibition of the response to kainate (GluR1 AMPA receptor),inhibition of the response to kainate (GluR3 AMPA receptor),Percentage change in NMDA response [1],inhibition of the response to kainate (GluR6 kainate receptor) [%],effect on NMDA-induced neuronal death [2]
C[C@]12CC[C@@H]3c4ccc(OS(=O)(=O)O)cc4CC[C@H]3[C@@H]1CC[C@H]2O [17α-Estradiol-3-sulfate],−22 ± 3(3) %,−17 ± 2(3) %,−7 ± 1(5) %,,,,,
C[C@]12CC[C@@H]3c4ccc(OS(=O)(=O)O)cc4CC[C@H]3[C@@H]1CC[C@@H]2O [17β-Estradiol-3-sulfate],−2 ± 2(3) %,−8 ± 4(3) %,−13 ± 4(4) %,no effect,no effect,+12 ± 3(4) %,12,
"O=C1N=c2cc([N+](=O)[O-])c([N+](=O)[O-])cc2=NC1=O [DNQX, 6,7-dinitroquinoxaline-2,3-dione]",,,,,,,,no effect
C[C@]12CC[C@H](O)CC1=CC[C@@H]1[C@@H]2CC[C@]2(C)C(=O)CC[C@@H]12 [Dehydroepiandrosterone],−16 ± 3(3) %,−7 ± 5(3) %,−5 ± 1(3) %,,,,,

# Reference: patent US6623933B1 (priority 1999, dated 2003)
